pIC50: −log10 of the molar value.

One may read the pIC50 as the negative decadic logarithm of the IC50, by convention in mol/L.

Experiment [1] concerns the target T1, Orexin/Hypocretin receptor type 1 (Homo sapiens, UniProt O43613).
T1 sequence (O43613 whole entry): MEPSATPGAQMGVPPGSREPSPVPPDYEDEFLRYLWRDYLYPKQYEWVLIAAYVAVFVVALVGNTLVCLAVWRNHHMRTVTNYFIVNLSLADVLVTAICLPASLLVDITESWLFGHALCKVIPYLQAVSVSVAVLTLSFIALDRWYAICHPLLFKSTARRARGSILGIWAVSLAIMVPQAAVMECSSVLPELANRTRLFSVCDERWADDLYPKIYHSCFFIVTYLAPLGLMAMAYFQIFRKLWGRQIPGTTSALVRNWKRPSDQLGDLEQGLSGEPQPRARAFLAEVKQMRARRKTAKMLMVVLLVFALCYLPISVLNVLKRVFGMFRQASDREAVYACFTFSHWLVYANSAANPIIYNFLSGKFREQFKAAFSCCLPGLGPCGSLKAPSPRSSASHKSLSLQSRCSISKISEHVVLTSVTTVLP
The class given is cell-based.

The target of the next experiment is T2, Orexin receptor type 2 (Homo sapiens, UniProt O43614).
T2 sequence (O43614 whole entry): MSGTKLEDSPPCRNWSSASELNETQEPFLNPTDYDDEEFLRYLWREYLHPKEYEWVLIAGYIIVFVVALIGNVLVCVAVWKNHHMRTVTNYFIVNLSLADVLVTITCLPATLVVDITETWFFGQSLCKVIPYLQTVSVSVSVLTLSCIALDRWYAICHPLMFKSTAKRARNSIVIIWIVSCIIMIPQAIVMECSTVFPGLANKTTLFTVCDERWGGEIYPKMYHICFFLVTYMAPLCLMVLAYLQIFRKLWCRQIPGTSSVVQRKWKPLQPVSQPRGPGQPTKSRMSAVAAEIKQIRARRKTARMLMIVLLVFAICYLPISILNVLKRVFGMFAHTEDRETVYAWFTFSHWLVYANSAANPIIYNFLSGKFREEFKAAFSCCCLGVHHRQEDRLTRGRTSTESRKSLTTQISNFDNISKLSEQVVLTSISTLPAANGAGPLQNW
It is filed as cell-based.

Regarding `Cc1ccc(-n2nccn2)c(C(=O)N[C@@H]2CCC[C@@H]2Nc2ccc(Cl)cn2)c1`, the values for the pIC50 (in experiment [1]; against Orexin receptor type 2) were 6.57 and < 5.00, respectively.

Source of the values: ChEMBL document CHEMBL5727767, “1,2-substituted cyclopentanes as orexin receptor antagonists” (2020).
